Test results taken from publication PMC7404309, “Regulation of ABA-Non-Activated SNF1-Related Protein Kinase 2 Signaling Pathways by Phosphatidic Acid” (International Journal of Molecular Sciences, 2020).
Counter-ions that a name gives are not always drawn.

Key:
[1] = target: T1, ERD10 (Arabidopsis thaliana, UniProt P42759); assay: phospholipid blot (lipid overlay); format: binding; conditions: TBST pH 7.5, 4 °C
T1 construct: GST fusion, E. coli Rosetta, glutathione-Sepharose
T1 sequence (P42759 1-260): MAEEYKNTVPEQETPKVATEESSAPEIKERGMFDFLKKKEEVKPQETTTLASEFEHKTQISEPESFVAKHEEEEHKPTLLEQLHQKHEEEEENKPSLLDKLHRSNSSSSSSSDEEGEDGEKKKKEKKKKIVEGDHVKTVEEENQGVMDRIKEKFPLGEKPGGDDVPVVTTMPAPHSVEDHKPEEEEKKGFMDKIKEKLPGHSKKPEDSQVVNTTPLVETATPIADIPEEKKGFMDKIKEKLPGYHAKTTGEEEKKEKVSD

[2] = target: T2, PP2CA (Arabidopsis thaliana, UniProt P49598); assay: ProFluor Ser/Thr PPase fluorescence assay; format: biochemical
T2 construct: GST fusion, E. coli Rosetta, glutathione-Sepharose
T2 sequence (P49598 1-399): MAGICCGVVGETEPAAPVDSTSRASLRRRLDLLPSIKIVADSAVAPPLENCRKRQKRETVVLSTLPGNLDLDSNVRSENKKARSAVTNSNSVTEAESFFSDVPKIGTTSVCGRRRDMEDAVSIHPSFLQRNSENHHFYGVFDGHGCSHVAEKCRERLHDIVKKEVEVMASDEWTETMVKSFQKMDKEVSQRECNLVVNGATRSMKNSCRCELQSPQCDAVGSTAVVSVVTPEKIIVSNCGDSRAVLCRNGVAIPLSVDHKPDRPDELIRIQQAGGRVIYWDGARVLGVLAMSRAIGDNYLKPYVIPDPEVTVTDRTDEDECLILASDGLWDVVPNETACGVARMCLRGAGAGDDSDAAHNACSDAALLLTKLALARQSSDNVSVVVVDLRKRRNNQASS

[3] = target: T3, ABI1 (Arabidopsis thaliana, UniProt P49597); assay: ProFluor Ser/Thr PPase fluorescence assay; format: biochemical
T3 construct: GST fusion, E. coli Rosetta, glutathione-Sepharose
T3 sequence (P49597 1-434): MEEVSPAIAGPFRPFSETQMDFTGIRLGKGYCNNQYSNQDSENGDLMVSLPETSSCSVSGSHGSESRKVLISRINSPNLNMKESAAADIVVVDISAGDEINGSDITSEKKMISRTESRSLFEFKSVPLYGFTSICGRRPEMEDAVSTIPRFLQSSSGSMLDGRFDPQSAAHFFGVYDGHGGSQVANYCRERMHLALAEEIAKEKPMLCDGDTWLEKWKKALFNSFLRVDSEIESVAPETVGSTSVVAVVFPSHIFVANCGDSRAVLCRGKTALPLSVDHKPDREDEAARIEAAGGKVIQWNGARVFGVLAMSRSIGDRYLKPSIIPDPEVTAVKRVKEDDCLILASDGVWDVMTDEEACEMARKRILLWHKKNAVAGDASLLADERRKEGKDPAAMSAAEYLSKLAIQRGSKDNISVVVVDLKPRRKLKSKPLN

Compound: CCCCCCCC/C=C\CCCCCCCC(=O)O[C@H](COC(=O)CCCCCCCCCCCCCCC)COP(=O)(O)O [PA 16:0/18:1, 1-palmitoyl-2-oleoyl-sn-glycero-3-phosphate, sodium salt]
- phospholipid blot (lipid overlay) [1]: the two dehydrins bound both PA and PS
- inhibition at 50 µM [2]: 50 to 60%
- inhibition at 50 µM [3]: 50 to 60%
